In patent US7737119B2, “Cosmetic or pharmaceutical composition comprising peptides, uses and treatment processes” (Societe d'Extraction des Principes Actifs S.A., priority 2002, dated 2010):
Where no end group is shown, it is not given here.

Key:
β1 integrin = experiment: Immunofluorescence study of β1 integrin expression in HaCat human keratinocytes; assay type: cell-based; conditions: 48 hours
Experimental: (§1) Human fibroblasts are plated in Labteks then cultured for one night. After rinsing with HBS buffer, a composition containing 1% of a solution at 100 ppm of the peptide SEQ ID NO: 5, or a control composition containing no peptide, is added. The cells are then incubated for 48 hours. After performing the elimination of the supernatants and rinsing the cultures, the cells are fixed with paraformaldehyde for 30 minutes at 4° C. then rinsed with PBS buffer.
(§2) 200 μL of anti-fibronectin antibody or anti-collagen I, or anti-collagen III polyclonal antibody obtained in the rabbit (TEBU) are then added. Incubation lasts 30 minutes at room temperature. The supernatants are eliminated and the cells are rinsed with PBS. 200 μL of secondary antibody, coupled to a fluorescent marker (Alexa-fluor 488) are then added. After 30 minutes of incubation at room temperature, the supernatants are eliminated and the cells are rinsed with the PBS.
(§3) The slides are then assembled and examined under epi-fluorescence microscope (Nikon Eclipse E600). The quantities of fibronectine and/or collagen of the type I and III, synthesized by the cells, are proportional to fluorescence intensity.
(§4) A study by immunofluorescence technique, identical to that of example 3, was performed on HaCat human keratinocytes, with anti-laminin-5 antibodies and/or β1 anti-integrin antibodies.

type III collagen = experiment: Immunofluorescence study of type III collagen expression in human fibroblasts; assay type: cell-based; conditions: 1% of a solution at 100 ppm of peptide, 48 hours
Experimental: (§5) The immunofluorescence is a semi-quantitative technique which makes it possible to appreciate the rate of each protein present in the cellular cytoplasm.
as §1, §2, §3

laminin-5 = experiment: Immunofluorescence study of laminin-5 expression in HaCat human keratinocytes; assay type: cell-based; conditions: 48 hours
Experimental: as §1, §2, §3, §4

type I collagen = experiment: Immunofluorescence study of type I collagen expression in human fibroblasts; assay type: cell-based; conditions: 1% of a solution at 100 ppm of peptide, 48 hours
Experimental: as §5, §1, §2, §3

fibronectin = experiment: Immunofluorescence study of fibronectin expression in human fibroblasts; assay type: cell-based; conditions: 1% of a solution at 100 ppm of peptide, 48 hours
Experimental: as §5, §1, §2, §3

keratin = experiment: Immunofluorescence study of keratin expression in ex vivo human skin samples; assay type: cell-based; conditions: 48 hours
Experimental: as §1, §2, §3
A study by immunofluorescence technique, identical to that of Example 3, was performed on ex vivo human skin samples, with anti-keratin monoclonal antibody (Novocastra).

keratinocytes = experiment: Adhesion between cutaneous cells, MTT reading of adherent keratinocytes in 96 well micro-plates; assay type: cell-based; conditions: after 3 hours of contact with the keratinocytes; compared with the other peptides tested
Experimental: The study is performed in 96 well micro-plates on keratinocytes cultured in an incubator at 37° C. and 5% of CO2.
The wells are pre-treated during 12 hours in a different way; four conditions are thus performed: • Condition A: negative control, containing no peptide; • Condition B: incubated with various peptides, made of 3 to 25 amino acids (from the extracellular matrix), with a concentration from 5 to 50 ppm; • Condition C: incubated with the peptide of sequence Arg-Asp-Phe-Thr-Lys-Ala-Thr-Asn-Ile-Arg-Leu-Arg-Phe-Leu-Arg (SEQ ID NO: 3) to a concentration of 5 ppm.
After 3 hours of contact with the keratinocytes, the wells are completely filled with culture medium, hermetically closed, turned over and agitated on a three-dimensional agitator during 20 minutes. Then the plates are emptied and the medium remaining is aspired. 100 μl of MTT with 1 mg/ml per well is added and is left during 3 hours at 37° C. and 5% of CO2. The solution is finally withdrawn and 100 μl of DMSO is added. A reading of C is made at 560 nm against 630 nm.
The results present the various Optical Density (O.D.) obtained according to the various conditions. The O.D. is proportional to the quantity of viable cells, that is to say those which adhered to the micro-plates.

[1] = test system: fibroblasts as well as human keratinocytes in culture; experiment: Peptide applied to cells in culture, HPLC analysis of the culture medium; assay type: cell-based; conditions: peptide applied to fibroblasts and human keratinocytes in culture, in a few hours
Experimental: A test is performed by applying the peptide to fibroblasts as well as to human keratinocytes in culture.

[2] = Stability of peptide in culture medium conditioned by human fibroblasts and keratinocytes (released enzymes of degradation); assay type: in vitro ADME; conditions: after 24 hours in culture medium withdrawn from human fibroblasts and keratinocytes cultured 24 hours at 37° C.
Experimental: Human fibroblasts and keratinocytes were cultured during 24 hours at 37° C. and to 5% of CO2. For this period, the cells will release numerous enzymes of degradation in the culture medium. Thereafter, the culture medium is withdrawn to be put in the presence of peptide.

[3] = Stability of peptide in solution by HPLC (C18) at various temperatures; assay type: physicochemical; conditions: 10^−4 M
Experimental: Peptide SEQ ID NO: 3 Arg-Asp-Phe-Thr-Lys-Ala-Thr-Asn-Ile-Arg-Leu-Arg-Phe-Leu-Arg was analyzed with a concentration of 10^−4 M by HPLC on a C18 type column, and with a linear gradient water/TFA 0.1%-acetonitrile/TFA 0.1%.

In the case of “Ile-Arg-Leu-Arg-Phe-Leu-Arg-NH2 (IRLRFLR-NH2) [SEQ ID NO: 5]”, the “β1 integrin synthesis (fluorescence intensity)” value (β1 integrin) is reported as “increase”, the “type III collagen synthesis (fluorescence intensity)” value (type III collagen) is reported as “increases” and the “laminin-5 synthesis (fluorescence intensity)” value (laminin-5) is reported as “increase”. The “type I collagen synthesis (fluorescence intensity)” value (type I collagen) was “increases” and the “fibronectin synthesis (fluorescence intensity)” value (fibronectin) was “increases”.
In the case of IRLRFLR [SEQ ID NO: 4], the “keratin expression (fluorescence intensity)” value (keratin) is reported as “increases”.
For DFTKATNIRLRFLR [SEQ ID NO: 11], the cell adhesion (keratinocytes) was “very good cell adhesion”.
For “RDFTKATNIRLRFLR [SEQ ID NO: 3, Arg-Asp-Phe-Thr-Lys-Ala-Thr-Asn-Ile-Arg-Leu-Arg-Phe-Leu-Arg]”, the “peptide concentration in the culture medium” value [1] was “decreases quickly”, the “degradation of the peptide” value [2] was “almost no degradation” and the “degradation of the peptide” value ([3]; after 24 hours at 25° C., 37° C. and 60° C.) was “no degradation”. For the same substance, the “degradation of the peptide” value ([3]; after 8 days at 25° C.) was “does not present degradation”.
